Test results reported in US10844002B2, “Lipids and lipid compositions for the delivery of active agents” (priority 2014, dated 2020).
Several values for one entry are separate records, joined by “and”; a condition that tells them apart may be missing. Equal entries are not always repeated.

Assays:
[1] = Measurement of mRNA encapsulation in lipid nanoparticles (Quant-iT Ribogreen); format: physicochemical; details: LNP cationic lipid/DSPC/cholesterol/stealth lipid, N:P 4:1, leptin mRNA
Protocol: All equipment and disposable supplies are certified free of RNase activity by the manufacturer or rendered RNase free by use of the RNaseZap reagent (LifeTechnologies). mRNA is encapsulated at a cationic lipid amine to mRNA phosphate (N:P) molar ratio of 4:1. Lipids (cationic lipid, DSPC, cholesterol and lipidated PEG or stealth lipid) are dissolved in ethanol. The molar ratios are 40:10:38:2, respectively. The mixture is sonicated briefly, then gently agitated for 5 minutes and then maintained at 37° C. until use. mRNA is exchanged into citrate buffer pH 5.8-6.0 by use of Amicon Ultra-15 centrifugal concentrators, and the final concentration is adjusted to 0.5 mg/ml and held at 37° C. until use. An equal volume of lipids in ethanol, mRNA in citrate buffer, and citrate buffer alone are drawn into disposable syringes. Tubing leading from syringes containing lipids and mRNA are attached to the T junction, and tubing leading from the syringe containing citrate buffer alone is paired with the tubing exiting the T-junction over a collection vessel containing a stir bar on an active stir plate. Syringes are placed in a syringe pump set to expel contents at a flow rate of 1 ml per minute.
The pump is activated, and the collected mRNA in lipid nanoparticles is transferred to SnakeSkin dialysis tubing (10,000 MWCO, Thermo Scientific). Material is dialyzed against RNAse- and pyrogen-free 1× phosphate buffered saline overnight at 4° C.
Percent encapsulation of mRNA in lipid nanoparticles is determined using the Quant-iT Ribogreen RNA Assay kit (Life Technologies). The LNP-mRNA suspension is assayed in buffer (mRNA outside the particle), and buffer plus Triton X-100 detergent (total mRNA). The difference calculated is the mRNA inside the particle. Prepare a 1000 ng/mL stock from the RNA provided in the kit and use this to generate a standard curve (0 ng/ml, 15.63-1000 ng/ml) in TE and TE+0.75% Triton X-100. Prepare LNP-mRNA samples in TE buffer and TE buffer+0.75% Triton X-100 with appropriate dilution so that reading is in the range of standard curve (400-2,000 fold). In a 384-well plate (Costar non-treated #3573) add 0.04 ml of standard (in duplicate) or sample (in triplicate) per well. Dilute Ribogreen reagent 240-fold in TE buffer and add 0.06 ml per well. Mix contents of wells and measure fluorescence (excitation=480 nm, emission=520 nm). Subtract background values (no RNA) from standard and test sample values and determine the concentrations of RNA in the samples using the standard curves. Determine the percent encapsulation of the sample by dividing the difference in concentrations between sample+triton and sample in buffer alone by the sample+triton concentration.

[2] = Characterization of LNP formulations: Z average particle diameter and polydispersity index; format: physicochemical; details: LNP formulation
Source text: The lipid nanoparticles have a size of about 1 to about 2,500 nm, about 1 to about 1,500 nm, about 1 to about 1,000 nm, in a sub-embodiment about 50 to about 600 nm, in a sub-embodiment about 50 to about 400 nm, in a sub-embodiment about 50 to about 250 nm, and in a sub-embodiment about 50 to about 150 nm. Unless indicated otherwise, all sizes referred to herein are the average sizes (diameters) of the fully formed nanoparticle, as measured by dynamic light scattering on a Malvern Zetasizer. The nanoparticle sample is diluted in phosphate buffered saline (PBS) so that the count rate is approximately 200-400 kcts. The data is presented as a weighted average of the intensity measure.

[3] = test system: H1N1 influenza A strain, Ca107; assay: Immunogenicity in ferret models (Influenza): haemagultanin inhibition (HAI) titers; format: in vivo, ferrets; details: IM
Protocol: For immunization in ferrets, a lipid working solution was freshly prepared by dissolving 22.5 mg of Example 1, 5.9 mg of DSPC, 13.9 mg of Cholesterol and 4.0 mg of PEG2000-conjugated DMPE (cat #880150P, Avanti Polar Lipids, Inc.) in 10 ml ethanol. A 10 mL working solution of RNA was also prepared at a concentration of 0.125 mg/ml in 100 mM citrate buffer (pH 6). The working lipid and RNA solutions were heated at 37° C. for 5 min before being loaded into two 10 cc luer-lok syringes. […] The outlet from the T mixer was also FEP tubing separately, 10 mL of citrate buffer (pH 6) was loaded in a third 10 cc syringe which was connected to a separate piece of tubing. All three syringes were loaded on a syringe pump and driven at 1.0 ml/min. The tubing outlets were positioned to collect the mixtures in a 20 mL glass vial which was gently stirred using a stirring bar. All glass vials were baked at 250° C. for 12 hours prior to experiment to completely inactivate any RNase contaminant. At the end of mixing, the stir bar was taken out and the ethanol/aqueous solution was allowed to equilibrate to room temperature for 1 hour. After incubation, the ethanol/aqueous solution was loaded into a syringe, and mixed with equal volume of 100 mM citrate buffer (pH 6) using the aforementioned Tee-junction process. Next, LNPs were concentrated to 20 mL and dialyzed against 10-15 volumes of 1× PBS using by tangential flow filtration before recovering the final product. The TFF system and hollow fiber filtration membranes were purchased from Spectrum Labs (Rancho Dominguez) and were used according to the manufacturer's guidelines. Polysulfone hollow fiber filtration membranes with a 100 kD pore size cutoff and 8 cm^2 surface area were used. For in vitro and in vivo experiments formulations were diluted to the required RNA concentration with 1×. PBS.
A total of seven experimental groups with six animals per group (42 animals) were used in this study; two vaccine doses of each RNA formulation (Groups 2-5), two groups vaccinated with a non-adjuvated (H1N1 subunit) or an adjuvated (MF59/H1N1 subunit) commercially available H1N1 influenza subunit vaccine (Groups 6 and 7) and a mock vaccinated group (Group 1). The RNA test vaccines were derived from a recombinant DNA plasmid (pDNA) carrying an alphavirus genome in which the structural genes were replaced with the HA gene from the H1N1 influenza A strain, Ca107. The RNA was then formulated in either cationic oil-in-water emulsion (CNE) or LNP for delivery to host cells via intramuscular (IM) injection. RNA concentrations for each formulation study group were 15 and 45 mcg for CNE and 5 and 15 mcg for LNP. The H1N1 subunit vaccines were used at a HA subunit protein concentration of 15 mcg. Non-vaccinated animals were mock vaccinated with a vehicle control for the RNA test vaccines. All test vaccines were administered by IM injection on Study Days (SD) 0 followed with a booster vaccination on Study Day 56 (8 weeks post 1st immunization).
Table 5 summarizes Influenza microneutralization data and table 6 the haemagultanin inhibition (HAI) titers. The LNP formulation tested generated immune responses with as little as 5 μg of self-amplifying RNA, as determined by increased HA-specific neutralization and HAI titers.

## CCCCC/C=C\C/C=C\CCCCCCCCOc1ccc(OCCCCCCCC/C=C\C/C=C\CCCCC)c(COC(=O)CCCN(C)C)c1 [Example 1, 2,5-bis((9Z,12Z)-octadeca-9,12-dien-1-yloxy)benzyl 4-(dimethylamino)butanoate]
[1]
  % encapsulation (mRNA Leptin): 73.3%
[2]; Z average particle diameter
  Zav (nm): 135.3 nm
[2]; polydispersity index
  polydispersity: 0.11
[3]; 5 mcg RNA, 4wp1, per animal
  Influenza HAI titer: 20 (2×) and 80 and 40 (2×) and 10
[3]; 5 mcg RNA, 4wp2, per animal
  Influenza HAI titer: 640 (2×) and >20480 (3×) and 320
[3]; 5 mcg RNA, 8wp1, per animal
  Influenza HAI titer: 20 (2×) and 40 (2×) and 10 and <10
[3]; 5 mcg RNA, Pre-bleed, per animal
  Influenza HAI titer: <10
[3]; 15 mcg RNA, 4wp1, per animal
  Influenza HAI titer: 160 (2×) and 320 and 80 (2×) and 40
[3]; 15 mcg RNA, 4wp2, per animal
  Influenza HAI titer: 640 (4×) and >20480 (2×)
[3]; 15 mcg RNA, 8wp1, per animal
  Influenza HAI titer: 40 (3×) and 80 (2×) and 20
[3]; 15 mcg RNA, Pre-bleed, per animal
  Influenza HAI titer: <10
